Experiment [1] deals with T1, G-protein coupled estrogen receptor 1 (Homo sapiens, UniProt Q99527). The experiment is described as follows: Agonist activity at GPER (unknown origin) expressed in human HL60 cells assessed as increase in cAMP accumulation in presence of IBMX after 15 mins by HTRF assay. The class given is functional, cell-based.
Experiment [2] addresses T1, G-protein coupled estrogen receptor 1. The experiment is described as follows: Antagonist activity at GPER (unknown origin) expressed in human HL60 cells assessed as inhibition of G-1-induced cAMP accumulation preincubated for 20 mins followed by G-1 addition measured after 10 mins by HTRF assay. The class given is functional, cell-based. Background: cAMP levels reflect the balance of adenylyl cyclase and phosphodiesterase activity.

For experiment [3], the system named is MDA-MB-231. The experiment is described as follows: Cytotoxicity against human MDA-MB-231 cells assessed as decrease in cell viability at 1 uM after 72 hrs in absence of GPER agonist E2 by MTS assay. In kind it is functional, cell-based. A general note: Formazan colour is commonly taken as a measure of viable cells.
Another experiment concerns MCF7. The experiment is described as follows: Cytotoxicity against human MCF7 cells assessed as decrease in cell viability at 1 uM after 72 hrs in presence of GPER agonist E2 by MTS assay. In kind it is functional, cell-based.
Experiment [4] has as its system MDA-MB-231. The experiment is described as follows: Cytotoxicity against human MDA-MB-231 cells assessed as decrease in cell viability at 1 uM after 72 hrs in presence of GPER agonist E2 by MTS assay. The class given is functional, cell-based.
In experiment [5] the target is T2, Estrogen receptor (Homo sapiens) (UniProt P03372).
T2 sequence (whole entry): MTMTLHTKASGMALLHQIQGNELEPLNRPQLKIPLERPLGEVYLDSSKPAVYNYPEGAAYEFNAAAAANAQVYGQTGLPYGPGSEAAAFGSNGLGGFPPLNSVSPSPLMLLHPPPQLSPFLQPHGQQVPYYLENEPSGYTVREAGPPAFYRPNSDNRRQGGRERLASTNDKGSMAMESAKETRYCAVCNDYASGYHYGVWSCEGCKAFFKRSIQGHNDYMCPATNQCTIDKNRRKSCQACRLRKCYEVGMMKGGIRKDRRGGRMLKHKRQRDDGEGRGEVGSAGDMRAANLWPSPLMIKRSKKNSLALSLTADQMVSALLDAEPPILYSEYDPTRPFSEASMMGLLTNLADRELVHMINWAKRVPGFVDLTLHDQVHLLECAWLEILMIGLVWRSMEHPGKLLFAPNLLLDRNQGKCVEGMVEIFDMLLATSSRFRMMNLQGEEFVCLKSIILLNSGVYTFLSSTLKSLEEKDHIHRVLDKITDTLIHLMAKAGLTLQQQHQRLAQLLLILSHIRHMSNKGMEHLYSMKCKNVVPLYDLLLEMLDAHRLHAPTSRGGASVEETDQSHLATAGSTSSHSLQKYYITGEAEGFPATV
The experiment is described as follows: Displacement of fluoromone from recombinant human full length untagged estrogen receptor alpha expressed in insect cells at 1 uM after 2 hrs by fluorescence polarization assay. Background: Polarisation of emitted light reports the rotation of a fluorescent probe.

Experiment [6] deals with T2, Estrogen receptor (Homo sapiens). The experiment is described as follows: Displacement of fluoromone from recombinant human full length untagged estrogen receptor alpha expressed in insect cells at.
For experiment [7], the target named is Estrogen receptor beta (Homo sapiens) (UniProt Q92731). The experiment is described as follows: Displacement of fluoromone from recombinant human full length untagged estrogen receptor beta expressed in insect cells at 1 uM after 2 hrs by fluorescence polarization assay.
Experiment [8] has the same target. The experiment is described as follows: Displacement of fluoromone from recombinant human full length untagged estrogen receptor beta expressed in insect cells at.
In experiment [9] the test system is SK-BR-3. The experiment is described as follows: Cytotoxicity against human SKBR3 cells assessed as decrease in cell viability at 1 uM after 72 hrs in absence of GPER agonist E2 by MTS assay. In kind it is functional, cell-based.
Experiment [10] concerns SK-BR-3. The experiment is described as follows: Cytotoxicity against human SKBR3 cells assessed as decrease in cell viability at 1 uM after 72 hrs in presence of GPER agonist E2 by MTS assay. In kind it is functional, cell-based.
In another experiment the test system is HL-60. The experiment is described as follows: Decrease in cAMP accumulation in human HL60 cells harboring GPER siRNA at 100 nM after 48 hrs by HTRF assay. The class given is functional, cell-based.
Experiment [11] deals with Estrogen receptor beta (Homo sapiens) (UniProt Q92731). The experiment is described as follows: Displacement of fluoromone from recombinant human full length untagged estrogen receptor beta expressed in insect cells after 2 hrs by fluorescence polarization assay.

SMILES strings stand for the structures. The source made the active and inactive calls. The rule behind the calls is not given here.

T1 sequence (Q99527 whole entry): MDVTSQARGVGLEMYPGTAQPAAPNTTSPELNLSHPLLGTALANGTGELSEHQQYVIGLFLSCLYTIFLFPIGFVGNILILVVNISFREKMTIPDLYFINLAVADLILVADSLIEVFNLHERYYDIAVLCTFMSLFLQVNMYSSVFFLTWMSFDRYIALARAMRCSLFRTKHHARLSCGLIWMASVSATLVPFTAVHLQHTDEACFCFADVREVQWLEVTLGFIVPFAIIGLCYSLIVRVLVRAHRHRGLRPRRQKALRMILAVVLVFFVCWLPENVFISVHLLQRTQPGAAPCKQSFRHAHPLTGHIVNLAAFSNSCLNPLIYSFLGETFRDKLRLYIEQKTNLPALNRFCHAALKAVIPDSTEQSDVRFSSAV
Sequence of Estrogen receptor beta (Homo sapiens) (Q92731 whole entry): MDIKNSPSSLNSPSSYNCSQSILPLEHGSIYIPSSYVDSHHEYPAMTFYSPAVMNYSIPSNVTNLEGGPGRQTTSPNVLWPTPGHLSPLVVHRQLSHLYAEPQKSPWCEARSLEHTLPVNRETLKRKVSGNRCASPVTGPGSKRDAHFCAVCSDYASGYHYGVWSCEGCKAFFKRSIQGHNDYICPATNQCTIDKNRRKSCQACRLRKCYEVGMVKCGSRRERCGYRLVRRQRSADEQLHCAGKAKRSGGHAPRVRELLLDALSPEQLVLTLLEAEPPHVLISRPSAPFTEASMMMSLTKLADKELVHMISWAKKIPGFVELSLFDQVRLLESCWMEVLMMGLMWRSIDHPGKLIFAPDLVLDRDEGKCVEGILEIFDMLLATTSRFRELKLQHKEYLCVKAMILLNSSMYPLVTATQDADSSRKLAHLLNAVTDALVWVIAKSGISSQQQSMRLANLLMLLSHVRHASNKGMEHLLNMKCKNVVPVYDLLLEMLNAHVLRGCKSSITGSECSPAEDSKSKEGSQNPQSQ

Turning to `CC(C)c1csc(NC(=O)c2cc3c(Cl)cccc3[nH]2)n1`, in experiment [1], the outcome was inactive. Moreover, the inhibition entry in experiment [2] is “inactive”.

In the case of `Brc1cc2c(cc1[C@@H]1Nc3ccccc3[C@@H]3C=CC[C@@H]31)OCO2`, the result in the experiment on MDA-MB-231 [3] and in the experiment with MDA-MB-231 [4] was inactive. The result with MCF7 was Active.

`CSc1ncc(Cl)c(C(=O)Nc2ncc(Cc3ccc(F)cc3)s2)n1`: the inhibition entry in experiment [2] was “inactive”.

With `O=C(Nc1nc2c(s1)CCC2)c1cc2cc(F)ccc2[nH]1`, the outcome in experiment [1] was inactive. The inhibition entry in experiment [2] is “inactive”.

As for `CCc1nc(NC(=O)c2[nH]c3ccc(Br)cc3c2Cl)sc1C`, the outcome (in experiment [5]; in experiment [7]; in the experiment with MCF7) was Active. In addition, the result (in [6]; in experiment [8]; in the experiment with SK-BR-3 [9]; with MDA-MB-231 [3]; in the experiment with SK-BR-3 [10]; in the experiment with MDA-MB-231 [4]) was inactive. Moreover, in experiment [1], the concentration for a half-maximal effect (EC50) (as a rule, the concentration giving half of the maximal effect) came out at 480 nM.

Turning to `CC(=O)c1ccc2c(c1)[C@@H]1C=CC[C@@H]1[C@H](c1cc3c(cc1Br)OCO3)N2`, the result (in the experiment with HL-60; in [11]) was inactive. Besides, the outcome in the experiment with SK-BR-3 [9], with MDA-MB-231 [3], in the experiment on MCF7, with SK-BR-3 [10] and in the experiment on MDA-MB-231 [4] was Active.

Regarding `O=C(Nc1ncc(Cc2ccc(F)cc2)s1)c1cc2cc(F)ccc2[nH]1`, the result in [5] and in experiment [7] was Active. Moreover, the EC50 in experiment [1] was 20 nM. Besides, the outcome in the experiment on SK-BR-3 [9], with MDA-MB-231 [3], in the experiment with SK-BR-3 [10] and with MDA-MB-231 [4] was inactive. Further, in experiment [2], the inhibition result is “inactive”.

With `N#Cc1ccc(Cc2cnc(NC(=O)c3cc4cc(F)ccc4[nH]3)s2)cc1`, the inhibition entry in experiment [2] was “inactive”.

`O=C(Nc1ncc(Cc2ccc(F)cc2F)s1)c1[nH]c2ccccc2c1Cl`: the outcome (with HL-60; in experiment [6]; in [11]; in experiment [8]) was inactive. In [1], the EC50 was determined as 1620 nM. In addition, the result in the experiment with SK-BR-3 [9], with MDA-MB-231 [3], in the experiment with MCF7, with SK-BR-3 [10] and in the experiment on MDA-MB-231 [4] was Active.

With `COc1cc(OC)c2[nH]c(C(=O)Nc3ncc(Cc4ccccc4)s3)cc2c1`, the inhibition result in [2] is “inactive”.

For the compound `O=C(Nc1nc2c(s1)CCC2)c1cc2cc(Br)ccc2[nH]1`, the outcome in experiment [1] was inactive. In experiment [2], the inhibition result was “inactive”.

Values taken from ChEMBL document CHEMBL4196232, “A Series of Indole-Thiazole Derivatives Act as GPER Agonists and Inhibit Breast Cancer Cell Growth” (ACS Med Chem Lett, 2018).
